Experiments:
[1] = system: leukemia-originated tumor cell P388; assay: Anti-leukemia test (survival rate); type: in vivo, mice; conditions: group A, 5-FU 2.0 mg/kg oral, 40 days after implantation
Experimental: The test was carried out according to the ordinary method by using mice each with the leukemia-originated tumor cell P388 implanted therein and also by comparing survival rates of the mice after the test samples were administered. Just after the tumor was implanted, each test sample was orally administered by mixing the sample in water in a bottle for drinking water and making the mice freely drink the water. […] 10 mice were used for one test sample group.

sarcoma = assay: Sarcoma-implanted mice: change in tumor volume; type: in vivo; conditions: 5-FU 20 mg/kg/day oral in drinking water (group A), vs control group
Experimental: The above result obviously indicates the characteristics of the treatment with an anticancer drug, and in this type of treatment, the anticancer drug can suppress growth of a tumor, but normal cells are damaged by toxicity of the anticancer drug. This negative aspect spoils the positive result of the treatment with an anticancer drug. […] The dose of 2 g/kg/day corresponds to 30 mg/kg/day in administration with respect to the solid content (1.5%).

[2] = system: mouse carrying diabetes caused by streptozotocin; assay: Test for accelerating normalization of a blood glucose level; type: in vivo, mice; conditions: 200 mg/kg intraperitoneal (positive control group)
Experimental: The test was performed by using mice, in each of which a diabetes was induced by streptozotocin, and also by comparing blood glucose levels before and after administration of test samples. In Table 3, the “normal group” indicates a blood glucose level in the normal state where treatment with streptozotocin is not performed. On the other hand, the “negative control group” indicates a blood glucose level in a mouse in which diabetes was generated by being subjected to treatment with streptozotocin. The “positive control group” indicates a blood glucose level when tolbutamide which was an accelerator of insulin secretion (200 mg/kg) was administered to a mouse carrying diabetes caused by streptozotocin. The “test A group” and “test B group” each indicates a blood glucose level when each of the Aureobasidium culture solution (2 g/kg and 10 g/kg) was administered to a mouse carrying diabetes caused by streptozotocin. It is to be noted that each sample was intrapenitoreally administered.
FIG. 6 is plotted with the ordinate axis indicating a blood glucose level and with the abscissa axis indicating treatment performed to each group of the tested mice. A left bar in each group represents an average value of blood glucose levels before administration of the test sample, while a right bar represent an average value of blood glucose levels after administration of the test sample.

O=c1[nH]cc(F)c(=O)[nH]1 [5-FU, 5-fluorouracil]
survival rate [1]: 80% | volume of the tumor (sarcoma): significantly restrained

CCCCNC(=O)NS(=O)(=O)c1ccc(C)cc1 [tolbutamide]
descent percentage of blood glucose level [2]: 17.4%

Reference: US20100068184A1, “LIVING BODY HEALING ACCELERATOR” (AUREO CO., LTD., priority 2006, published 2010)
